Results published in PMC11649115, “In vitro safety evaluation of dopamine D3R antagonist, R-VK4-116, as a potential medication for the treatment of opioid use disorder” (PLOS ONE, 2024).
Where “and” joins values, the source holds several entries; their conditions need not be identical. Equal values may be shown once. Read-outs that look alike come from different tables or passages of the source.

Experiments:
[1] = set-up: method as in PMID 31526003; conditions: rats, 10 mg/kg oral dose ref 8; cited from earlier work
CYP2B6 [2] = molecular target: T1, CYP2B6 (Homo sapiens, UniProt P20813); test: CYP inhibition in human liver microsomes; conditions: human liver microsomes
T1 sequence (P20813 1-491): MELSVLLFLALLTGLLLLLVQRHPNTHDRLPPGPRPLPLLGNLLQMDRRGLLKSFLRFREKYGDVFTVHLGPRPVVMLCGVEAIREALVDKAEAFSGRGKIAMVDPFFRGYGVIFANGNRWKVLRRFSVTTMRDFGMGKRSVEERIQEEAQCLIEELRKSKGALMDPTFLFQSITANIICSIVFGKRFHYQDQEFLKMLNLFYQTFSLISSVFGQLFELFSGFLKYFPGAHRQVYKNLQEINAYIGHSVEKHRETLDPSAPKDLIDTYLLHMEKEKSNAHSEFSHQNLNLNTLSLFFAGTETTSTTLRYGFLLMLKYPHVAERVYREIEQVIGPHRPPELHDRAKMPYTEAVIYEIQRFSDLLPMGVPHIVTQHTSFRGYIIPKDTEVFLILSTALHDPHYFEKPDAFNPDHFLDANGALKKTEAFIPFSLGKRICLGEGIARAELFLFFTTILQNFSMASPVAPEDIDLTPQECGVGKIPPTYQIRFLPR

dog plasma proteins = test: Plasma protein binding, Sephadex G-25 gel filtration; assay type: in vitro ADME
Protocol: (§1) The gel filtration used solid-phase extraction columns containing hydrated gel filtration beads (Sephadex G-25). […] In this method, the amount of analyte accompanying the proteins (i.e., protein-bound R-VK4-116) before and after filtration was assayed for analyte concentration by LC-MS/MS.

[3] = as above; assay type: in vitro ADME; conditions: plasma; for fraction unbound at 2 h, 0.5 μM: nominal 0.5 μM; for fraction unbound at 2 h, 1 μM: nominal 1 μM
Protocol: as §1

rat plasma proteins = test: as above; assay type: in vitro ADME
Protocol: as §1

10 enzyme targets = test: Enzyme and uptake assays; assay type: biochemical; conditions: 10 μM
Protocol: The purpose of this study was to provide a first step in preliminary safety assessments by providing early identification of potential off-target interactions for the optimization of safety margins. This study was conducted by Eurofins Cerep (France) and Eurofins Discovery (St. Charles, MO). R-VK4-116 was tested in enzyme and uptake assay with 10 enzyme targets (Figs 4 and 5 in S1 File), and cellular and nuclear receptor functional assays with 24 receptor targets (Figs 5 and 6 in S1 File). Compound enzyme inhibition effect was calculated as a % inhibition of control enzyme activity. The cellular agonist effect was calculated as a % of the control response to a known reference agonist for each target, and the cellular antagonist effect was calculated as a % inhibition of the control reference agonist response for each target.

CYP2B6 [4] = test: CYP induction, in situ catalytic activity, human hepatocytes
Source text: Rifampicin as a positive control and solvent (0.1% DMSO) vehicle control were also included. The acceptance criteria for CYP induction was ≥ 2-fold induction for significant CYP activity, while the acceptance criteria for CYP mRNA was ≥ 4-fold for significant CYP induction.

HepG2 cells = test: Lysosomal trapping assay (Lyso-ID Red); assay type: cell-based; conditions: HepG2, 0.1, 1.0, and 10.0 μM, up to 72 hr
Protocol: After incubation timepoint, the treated cells were washed and incubated with fluorescent dual color detection reagent for 60 min. Subsequently, the fluorescence was measured with Spectramax ID5. An increase in red signal without significant loss (no more than 30%) of the blue signal indicates the accumulation of test article within the cells arising from an increase in lysosome or lysosome-like vesicles in size and/or number. The assay results were presented as fluorescence fold change for red stain and blue stain individually and were calculated as follows: Fluorescencefoldchange=RelativeFluorescenceUnit(RFU)measuredfortestarticleconcentration/RFUmeasuredforrespectivesolventcontrol
The acceptance criteria for significant lysosomal perturbation was a ≥ 2-fold increase in red fluorescence with no loss of blue fluorescence.

[5] = Metabolic stability in liver microsomes; conditions: human, pH 7.4
[6] = dog, read-out: % Bound, Mean ± SD (converted)
[7] = rat, read-out: % Bound (converted)
[8] = rat, read-out: % Bound, Mean ± SD (converted)
[9] = heat-inactivated liver microsomes

For CCc1cc(Cl)c(OC)c(N2CCN(CC(O)CCNC(=O)c3cc4ccccc4[nH]3)CC2)c1 (centres unmarked) [R-VK4-116, N-(4-(4-(3-chloro-5-ethyl-2-methoxyphenyl)piperazin-1-yl)-3-hydroxybutyl)-1H-indole-2-carboxamide], the Cmax [1] is listed as 454 nM, the CYP2B6 inhibition (CYP2B6 [2]; up to 100 μM) is listed as “did not inhibit CYP significantly” and the activity at 20 min, 0.1 µM (CYP2B6 [2]; human, probe bupropion) is listed as 99.6 ± 7.5%. The activity at 20 min, 0.3 µM (CYP2B6 [2]; human, probe bupropion) was 90.9 ± 2.5%, the activity at 20 min, 1 µM (CYP2B6 [2]; human, probe bupropion) was 91.2 ± 1.4% and the activity at 20 min, 3 µM (CYP2B6 [2]; human, probe bupropion) was 99.8 ± 7.6%. For the same compound, the activity at 20 min, 10 µM (CYP2B6 [2]; human, probe bupropion) was 97.5 ± 6.6%, the activity at 20 min, 30 µM (CYP2B6 [2]; human, probe bupropion) was 89.3 ± 1.2% and the activity at 20 min, 60 µM (CYP2B6 [2]; human, probe bupropion) was 91 ± 0.7%. For the same compound, the activity at 20 min, 100 µM (CYP2B6 [2]; human, probe bupropion) was 97 ± 4.9%, the “% Bound” value (dog plasma proteins; nominal 0.5 μM) was 92.1% and 80.8% and 77.9% and the “Ratio [R-VK4-116] Before Filtration / Eluate” value (dog plasma proteins; nominal 0.5 μM) was 1.25 and 1.24. The “Ratio [R-VK4-116] Before Filtration / Eluate, Mean ± SD” value (dog plasma proteins; nominal 0.5 μM) was 1.25 ± 0.01, the “[R-VK4-116] Before Filtration” value (dog plasma proteins; nominal 0.5 μM) was 0.618 µM and 0.616 µM and 0.609 µM and the “[R-VK4-116] In Sephadex G-25 Eluate” value (dog plasma proteins; nominal 0.5 μM) was 0.495 µM and 0.493 µM and 0.491 µM. The “% Bound” value (dog plasma proteins; nominal 1 μM) was 73.3% and 92.5% and 82.4%, the “Ratio [R-VK4-116] Before Filtration / Eluate” value (dog plasma proteins; nominal 1 μM) was 1.68 and 1.51 and 1.77 and the “Ratio [R-VK4-116] Before Filtration / Eluate, Mean ± SD” value (dog plasma proteins; nominal 1 μM) was 1.65 ± 0.13. The “[R-VK4-116] Before Filtration” value (dog plasma proteins; nominal 1 μM) was 1.05 µM and 1.07 µM, the “[R-VK4-116] In Sephadex G-25 Eluate” value (dog plasma proteins; nominal 1 μM) was 0.626 µM and 0.707 µM and 0.604 µM and the fraction unbound at 2 h, 0.5 μM [3, 6] was 0.164. For the same compound, the fraction unbound at 2 h, 1 μM [3, 6] was 0.173, the fraction unbound at 2 h, 0.5 μM [3, 7] was 0.164 and the fraction unbound at 2 h, 0.5 μM [3, 8] was 0.168. The fraction unbound at 2 h, 1 μM [3, 7] was 0.086, the fraction unbound at 2 h, 1 μM [3, 8] was 0.072 and the “% Bound” value (rat plasma proteins; nominal 0.5 μM) was 79.3% and 86.7%. For the same compound, the “Ratio [R-VK4-116] Before Filtration / Eluate” value (rat plasma proteins; nominal 0.5 μM) was 1.18 and 1.20, the “Ratio [R-VK4-116] Before Filtration / Eluate, Mean ± SD” value (rat plasma proteins; nominal 0.5 μM) was 1.19 ± 0.01 and the “[R-VK4-116] Before Filtration” value (rat plasma proteins; nominal 0.5 μM) was 0.631 µM and 0.630 µM. The “[R-VK4-116] In Sephadex G-25 Eluate” value (rat plasma proteins; nominal 0.5 μM) was 0.533 µM and 0.535 µM and 0.525 µM, the “% Bound” value (rat plasma proteins; nominal 1 μM) was 93.9% and 93.2% and the “Ratio [R-VK4-116] Before Filtration / Eluate” value (rat plasma proteins; nominal 1 μM) was 1.63 and 1.60 and 1.58. The “Ratio [R-VK4-116] Before Filtration / Eluate, Mean ± SD” value (rat plasma proteins; nominal 1 μM) was 1.60 ± 0.02, the “[R-VK4-116] Before Filtration” value (rat plasma proteins; nominal 1 μM) was 1.03 µM and 1.01 µM and 1.02 µM and the “[R-VK4-116] In Sephadex G-25 Eluate” value (rat plasma proteins; nominal 1 μM) was 0.632 µM and 0.647 µM. For the same compound, the “enzyme inhibition effects or uptake” value (10 enzyme targets) was “did not show any enzyme inhibition effects or uptake”, the “Fold of Vehicle Control (CYP2B6 activity, bupropion hydroxylation)” value (“Fold of Vehicle Control” for short) (CYP2B6 [4]; hepatocyte Lot 336, 0.01 µM) was 1.2 fold and the “Fold of Vehicle Control” value (CYP2B6 [4]; hepatocyte Lot 336, 0.1 µM) was 1.1 fold. The “Fold of Vehicle Control” value (CYP2B6 [4]; hepatocyte Lot 336, 1 µM) was 1.1 fold, the “Fold of Vehicle Control” value (CYP2B6 [4]; hepatocyte Lot 336, 3 µM) was 1.1 fold and the “Fold of Vehicle Control” value (CYP2B6 [4]; hepatocyte Lot 336, 5 µM) was 1.1 fold. For the same compound, the “Bupropion Hydroxylation” value (CYP2B6 [4]; hepatocyte Lot 336, 10 µM) was 0.97 pmol/min/106 cells, the “Fold of Vehicle Control” value (CYP2B6 [4]; hepatocyte Lot 336, 10 µM) was 1.1 fold and the “Bupropion Hydroxylation” value (CYP2B6 [4]; hepatocyte Lot 348B, 0.01 µM) was 5.0 pmol/min/106 cells. For the same compound, the “Fold of Vehicle Control” value (CYP2B6 [4]; hepatocyte Lot 348B, 0.01 µM) was 1.1 fold, the “Bupropion Hydroxylation” value (CYP2B6 [4]; hepatocyte Lot 348B, 0.1 µM) was 4.5 pmol/min/106 cells and the “Fold of Vehicle Control” value (CYP2B6 [4]; hepatocyte Lot 348B, 0.1 µM) was 1.0 fold. The “Bupropion Hydroxylation” value (CYP2B6 [4]; hepatocyte Lot 348B, 1 µM) was 4.5 pmol/min/106 cells, the “Fold of Vehicle Control” value (CYP2B6 [4]; hepatocyte Lot 348B, 1 µM) was 1.0 fold and the “Bupropion Hydroxylation” value (CYP2B6 [4]; hepatocyte Lot 348B, 3 µM) was 4.1 pmol/min/106 cells. For the same compound, the “Fold of Vehicle Control” value (CYP2B6 [4]; hepatocyte Lot 348B, 3 µM) was 0.94 fold, the “Bupropion Hydroxylation” value (CYP2B6 [4]; hepatocyte Lot 348B, 5 µM) was 3.8 pmol/min/106 cells and the “Fold of Vehicle Control” value (CYP2B6 [4]; hepatocyte Lot 348B, 5 µM) was 0.85 fold. The “Bupropion Hydroxylation” value (CYP2B6 [4]; hepatocyte Lot 348B, 10 µM) was 3.9 pmol/min/106 cells, the “Fold of Vehicle Control” value (CYP2B6 [4]; hepatocyte Lot 348B, 10 µM) was 0.89 fold and the “Fold of Vehicle Control” value (CYP2B6 [4]; hepatocyte Lot 399, 0.01 µM) was 1.0 fold. For the same compound, the “Fold of Vehicle Control” value (CYP2B6 [4]; hepatocyte Lot 399, 0.1 µM) was 1.0 fold, the “Fold of Vehicle Control” value (CYP2B6 [4]; hepatocyte Lot 399, 1 µM) was 1.1 fold and the “Fold of Vehicle Control” value (CYP2B6 [4]; hepatocyte Lot 399, 3 µM) was 1.2 fold. The “Fold of Vehicle Control” value (CYP2B6 [4]; hepatocyte Lot 399, 5 µM) was 1.1 fold, the “Fold of Vehicle Control” value (CYP2B6 [4]; hepatocyte Lot 399, 10 µM) was 1.1 fold and the “red lysosomal stain signal / blue nuclear stain signal over solvent control” value (HepG2 cells) was “No significant increase in red lysosomal stain signal or decrease in blue nuclear stain signal”. The remaining at 0 h, 1 μM [5, 9] was 100%, the remaining at 0 h, 10 μM [5, 9] was 100% and the remaining at 2 h, 1 μM [5, 9] was 96.7%. It also gave a remaining at 2 h, 10 μM [5, 9] of 95.1%, a remaining at 0 h, 1 μM ([5]; liver microsomes) of 100% and a remaining at 0 h, 10 μM ([5]; liver microsomes) of 100%. The remaining at 0.5 h, 1 μM ([5]; liver microsomes) was 41.1%, the remaining at 0.5 h, 10 μM ([5]; liver microsomes) was 69.7% and the remaining at 1 h, 1 μM ([5]; liver microsomes) was 25.9%. The remaining at 1 h, 10 μM ([5]; liver microsomes) was 60.1%, the remaining at 1.5 h, 1 μM ([5]; liver microsomes) was 22.3% and the remaining at 1.5 h, 10 μM ([5]; liver microsomes) was 55.5%. The remaining at 2 h, 1 μM ([5]; liver microsomes) was 16.4% and the remaining at 2 h, 10 μM ([5]; liver microsomes) was 48.9%.
